Structures are written as SMILES.

A word on the melting point: it is the temperature of the solid-liquid transition. For `O=C(Nc1ncc([N+](=O)[O-])s1)c1cccs1`, the melting point came to 256 °C.

As for `O=S(=O)(Cl)Cc1ccc(F)cc1`, the melting point is 61 to 63 °C.

`Nc1c(Br)cc(C(F)(F)F)cc1[N+](=O)[O-]` showed a melting point of 71 °C.

Compound `Cc1cc(CCN2CCN(c3cccc(Cl)c3)CC2)n[nH]1` had a melting point of 106 °C.

Consider `CCOC(=O)c1[nH]c2cc(Cl)cc(Cl)c2c1C=O`, for which the melting point lay within 213 to 217 °C.

In turn, `O=C(Cl)C(=O)Cl` yielded a melting point of -12 °C.

The compound `CC(C)Nc1ccc(C#N)cc1[N+](=O)[O-]` displayed a melting point of 113 to 115 °C.

For the compound `COC(=O)c1ccc(CN2CCN(C(=O)OC(C)(C)C)CC2)cc1`, the melting point was 78 to 80 °C.

Take `CC12C=CC(=O)C=C1CCC1C2C(O)CC2(C)C1CCC2(O)C(=O)COC(=O)CCCc1ccc(N(CCCl)CCCl)cc1` (stereo unspecified): the melting point came to 164 °C.

`CCOC(=O)Cn1nc(-c2ccccc2)c2ccccc2c1=O` yielded a melting point of 224 °C.

`CCc1c(C)n[nH]c1C` returned a melting point of 40 to 45 °C.

In turn, `CN1CCC23c4c5ccc(OCc6ccccc6)c4OC2C(O)C=CC3C1C5` (stereo unspecified) came in with a melting point of 132 °C.

Regarding `O=Cc1ccccc1OCc1ccccc1`, the melting point stood at 47 °C.

For the compound `CCOC(=O)C1=NN(c2ccccc2)C(=O)C1C(Cl)C1C(=O)N(c2ccccc2)N=C1C(=O)OCC` (stereo unspecified), the melting point turned out to be 221 °C.

In the case of `C=C1C(=O)OC2C1CCC(C)C1(O)C=CC(=O)C21C` (stereo unspecified), the melting point amounted to 164 °C.

`CS(=O)(=O)c1ccc(C(=O)O)c(Cl)c1` registered a melting point of 194 °C.

Consider `CC1Cc2ccccc2N1` (stereo unspecified), for which the melting point is -51 °C.

Turning to `O=C1OC(=O)C2CC12` (stereo unspecified), the melting point fell in the range of 54 to 60 °C.

As for `CC(C=CC=C(C)C=CC1=C(C)CCCC1(C)C)=CC=O`, the melting point was found to be 63 °C.

In turn, `COc1cc(I)c(OC)cc1I` came in with a melting point of 171 to 173 °C.

The compound `N#CC(C#N)=Cc1ccc(O)cc1` yielded a melting point of 189 °C.

With `O=C1NN=C(C(F)(F)F)C1=NNc1ccc(Br)cc1`, the melting point was found to be 212 °C.

In turn, `c1ccc(-c2cccs2)nc1` registered a melting point of 63 °C.

The compound `Cc1cccc(C=CC(=O)O)c1` yielded a melting point of 116 to 119 °C.

In the case of `COC(=O)c1ccccc1S(=O)(=O)NC(=O)Nc1nc(C)nc(OC)n1`, the melting point is 162 °C.

As to `CC(=O)C1(O)CCC2C3CC(C)C4=CC(=O)CCC4(C)C3CCC21C` (stereo unspecified), the melting point stood at 222 °C.

`Nc1cccc(C=CC(=O)c2ccccc2)c1` registered a melting point of 159 °C.

Consider `CCOC(OCC)c1cccc2c(Br)ccc([N+](=O)[O-])c12`, for which the melting point worked out at 95 °C.

In turn, `O=Cc1c([N+](=O)[O-])cccc1[N+](=O)[O-]` showed a melting point of 119 °C.

Compound `c1ccc2c(c1)C1c3ccccc3C2c2ccccc21` registered a melting point of 254 °C.

`NCC(O)COc1ccccc1` (stereo unspecified) displayed a melting point of 146 °C.

For the compound `O=C(N=c1sc(C(=O)c2cccs2)nn1-c1ccccc1[N+](=O)[O-])c1ccccc1`, the melting point is 239 °C.

Take `CCOc1ccc(C(=O)O)cc1`: the melting point worked out at 198 °C.

As for `CCNS(=O)(=O)c1ccc(C)cc1`, the melting point is 64 °C.

In turn, `N[C@@H](Cc1ccc(O)c([N+](=O)[O-])c1)C(=O)O` had a melting point of 233 to 235 °C.

In the case of `Nc1ccc(-c2cccnc2)cc1`, the melting point was 115 to 118 °C.

As for `CC(C)S(=O)(=O)CC#N`, the melting point is 32 to 34 °C.

Consider `Cc1ccc(OP2(=S)Oc3ccc(Cl)cc3Sc3cc(Cl)ccc3O2)c(C)c1`, for which the melting point was 149 °C.

As to `O=C(O)C(Cc1ccc([N+](=O)[O-])cc1)c1ccccc1` (stereo unspecified), the melting point was determined as 152 °C.

Turning to `CCOC(=O)c1csc(C2CCN(C(=O)OC(C)(C)C)CC2)n1`, the melting point lay in the range of 71 to 73 °C.

`O=C(O)C(=O)c1ccc([N+](=O)[O-])cc1` registered a melting point of 110 °C.

Compound `O=C(O)C1(c2ccc(Cl)cc2)CCC1` registered a melting point of 80 to 90 °C.

`CC(=O)C1CCc2ccccc2C1=O` (stereo unspecified) had a melting point of 56 °C.

`CC(Oc1ccc(O)cc1)C(=O)O` (stereo unspecified) returned a melting point of 143 to 147 °C.

`N#CC1(c2c(F)cccc2Cl)CCCCC1` came in with a melting point of 76 to 81 °C.

In turn, `Cc1nc(CC#N)sc1/N=N/c1ccc([N+](=O)[O-])cc1` showed a melting point of 233 °C.

`OCc1cccc(C(F)(F)F)c1Cl`: the melting point came out at 76 °C.

For the compound `O=C(O)c1cnc(O)nc1-c1ccncc1`, the melting point fell in the range of 309 to 310 °C.

As for `C=Cc1scnc1C`, the melting point is -15 °C.

For the compound `[O-][N+](=Nc1ccccc1)c1ccc(N=Nc2ccccc2)cc1`, the melting point was in the range of 130 to 131 °C.

For `O=C(Nc1ccc(Cl)cc1)Nc1ccc(Cl)c(C(F)(F)F)c1`, the melting point came to 214 °C.

For `O=C(O)/C=C/c1ccc(F)cc1F`, the melting point fell in the range of 214 to 218 °C.

Consider `O=C(OC1C(=O)OC(=O)C1OC(=O)c1ccccc1)c1ccccc1` (stereo unspecified), for which the melting point stood at 174 °C.

In the case of `O=C(O)C1=CC(=C(c2ccc(O)c(C(=O)O)c2)c2ccc(O)c(C(=O)O)c2)C=CC1=O`, the melting point was determined as 300 °C.

The compound `Nc1ccc(C(F)(F)F)c(F)c1` gave a melting point of 56 °C.

The compound `O=[N+]([O-])c1cccc(C=NO)c1` registered a melting point of 124 °C.

The compound `Nc1c(CN2CCCCC2)c(=O)oc2ccccc12` gave a melting point of 190 °C.

As to `O=C(Oc1ccc(OC(=O)c2ccccc2)cc1)c1ccccc1`, the melting point amounted to 115 °C.

As to `O=C(CBr)Oc1ccc([N+](=O)[O-])cc1`, the melting point was determined as 86 °C.

For `BrCc1c(CBr)c(CBr)c2ccccc2c1CBr`, the melting point came out at 197 °C.

The compound `C[Si](N[Si](C)(c1ccccc1)c1ccccc1)(c1ccccc1)c1ccccc1` yielded a melting point of 91 °C.

Turning to `O=[N+]([O-])c1ccc2c(c1)=NC(=c1ccc(=C3N=c4cc([N+](=O)[O-])ccc4=C3O)cc1)C=2O`, the melting point came to 360 °C.

`CCC(Cl)CC` registered a melting point of -105 °C.

`NC(=S)Cc1ccc(-c2csnn2)cc1` returned a melting point of 169 to 171 °C.

Compound `COC(=O)c1cc(O)nc(O)n1` gave a melting point of 244 °C.

In turn, `O=C=Nc1csc(-c2ccc(C(F)(F)F)cc2)n1` returned a melting point of 51 °C.

`OCc1ccc(-n2cncn2)cc1`: the melting point was 124 to 125 °C.

Take `Cc1ccc(F)c(C#N)c1Cl`: the melting point was found to be 59 °C.

The compound `NNc1nncc2ccccc12` had a melting point of 172 °C.

On to `O=C(c1ccc(F)cc1)C1CC1`, for which the melting point was -15 °C.

As to `N#CC1(c2ccc(Cl)cc2Cl)CC1`, the melting point was in the range of 81 to 85 °C.

`CN(C(=O)CCl)c1c2c(nn1C)CCCC2`: the melting point fell in the range of 84 to 86 °C.

Turning to `O=C(NC(Cc1cccs1)C(=O)O)OCC1c2ccccc2-c2ccccc21` (stereo unspecified), the melting point was found to be 169 °C.

The compound `CCCCCCCCCCCCCCCC(C)=O` had a melting point of 48 °C.

`O=C(NCO)c1cccnc1`: the melting point amounted to 142 °C.

In turn, `O=C(O)[C@@H]1C[C@H]1c1ccccc1` (relative stereo) registered a melting point of 86 to 92 °C.

The compound `N#CCc1ccc2ccccc2c1` gave a melting point of 78 to 88 °C.

`COc1ccc(C)cc1` returned a melting point of -32 °C.

Compound `Cc1cncc(Oc2ccc(Br)cc2)n1` gave a melting point of 58.5 to 60 °C.

`O=C(Nc1ccccn1)C(F)(F)C(F)(F)C(F)(F)C(F)(F)C(F)(F)C(F)(F)C(F)(F)C(F)(F)F` returned a melting point of 66 °C.

The compound `CCOC(=O)c1nn(-c2ccc(C)cc2)c(=N)c(C#N)c1C` returned a melting point of 150 °C.

Regarding `C=C(C)C(=O)OCC1CO1` (stereo unspecified), the melting point was -82 °C.

Turning to `Cc1ccc(-c2ccc(C=C3N=C(c4ccccc4)OC3=O)o2)cc1`, the melting point is 149 to 150 °C.

Consider `SC1CCCCC1`, for which the melting point was -30 °C.

Consider `Nc1ccccc1SC(=O)c1ccccc1`, for which the melting point was found to be 105 °C.

`O=C1OS(=O)(=O)c2ccccc21` gave a melting point of 130 °C.

The compound `Nc1ccn(C2CCC(CO)O2)c(=O)n1` (stereo unspecified) had a melting point of 218 °C.

For the compound `O=C(O)c1c(F)c(F)c(F)c(F)c1C(=O)O`, the melting point is 163 °C.

`COc1ccccc1-c1nnc2n1NC(c1ccccc1O)S2` (stereo unspecified) showed a melting point of 205 °C.

The compound `Cc1ccc2c(c1)C1C(C3C2C2(Cl)C(Cl)=C(Cl)C3(Cl)C2(Cl)Cl)C2(Cl)C(Cl)=C(Cl)C1(Cl)C2(Cl)Cl` (stereo unspecified) registered a melting point of 160 to 165 °C.

The compound `CCCCCCCCC=CCCCCCCCC(=O)OCC(COC(=O)CCCCCCCC=CCCCCCCCC)OC(=O)CCCCCCCC=CCCCCCCCC` (stereo unspecified) showed a melting point of -32 °C.

The compound `CCOC(=O)Cc1cc(CC(=O)OCC)c(NC(=O)OCC)cc1NC(=O)OCC` came in with a melting point of 140 °C.

Turning to `OC1CCN(c2nccc(C(F)(F)F)n2)CC1`, the melting point was 99 to 100 °C.

Compound `Cc1cccc(C)c1NC(=O)C(C)Br` (stereo unspecified) returned a melting point of 163 to 165 °C.

As to `CC(C)(C)CC(C)(C)Nc1nc(N2CCOCC2)nc(N2CCOCC2)n1`, the melting point came out at 159 °C.

For the compound `O=[N+]([O-])c1cc(C2CCCCC2)c(O)c([N+](=O)[O-])c1`, the melting point was 107 °C.

Take `CC1(C)OC(=O)C(=Cc2ccc([N+](=O)[O-])cc2)C(=O)O1`: the melting point stood at 301 °C.

`CC(=O)Nc1c(Cl)cccc1Cl` came in with a melting point of 181 °C.

`CC(=O)N1CCC[C@H]1C(=O)O`: the melting point was 118 °C.

Regarding `Nc1cc2ccccc2c2ccccc12`, the melting point is 138 °C.

Take `Cc1nccc(-c2cccc(N)c2)n1`: the melting point was in the range of 108 to 109 °C.

Compound `O=c1[nH]cc(Cl)c(=O)[nH]1` yielded a melting point of 300 °C.

The compound `COC(=O)c1ccsc1N` showed a melting point of 79 °C.

With `COc1cc(OC)nc(Oc2cccc(Oc3nc(OC)cc(OC)n3)c2C(=O)ON=C(c2ccccc2)c2ccccc2)n1`, the melting point is 129 °C.

`N#Cc1cn(C2CC2)c(=O)[nH]c1=O`: the melting point was in the range of 254 to 258 °C.

With `O=[N+]([O-])c1ccc(N/N=C2\Cc3ccccc32)c([N+](=O)[O-])c1`, the melting point was 203 °C.

Values taken from a melting point compilation (Tetko et al.).
